Like-named read-outs stand apart in the source and are kept apart here.
Assays:
[1] = in vitro; settings: African green monkey
Description: The resulting pellet was resuspended and counted in a Neubauer chamber in the presence of trypan blue to exclude nonviable cells colored in blue. Once the cell load was estimated, they were either used for the next passage in a new flask or processed for the cytotoxicity assay.
Briefly, Vero cells at a density of 10^4 cells per well were plated in 100 µL of complete DMEM and incubated overnight to allow cell attachment. Plates were then controlled under an inverted fluorescence microscope (Lumascope LS520) to ensure adherence, sterility and cell integrity. Thereafter, culture medium from each well was carefully emptied, and plates were filled with 90 µL of fresh complete medium followed by the addition of 10 µL of serial 5-fold dilutions of compound solutions. […] Fluorescence was then read using a Magelan Infinite M200 fluorescence multiwell plate reader (Tecan) with excitation and emission wavelengths of 530 and 590 nm, respectively. The percentage of cell viability was calculated from readouts, and the median cytotoxic concentration (CC50) for each compound was deduced from concentration–response curves using GraphPad Prism 8.0 software as described above. Selectivity indexes were then determined for each test substance as follows: SI = CC50(Vero cells)/IC50(T. brucei brucei).

[2] = system: bloodstream forms of Trypanosoma brucei brucei; experiment: resazurin-based antitrypanosomal inhibition assay; format: cell-based; settings: Trypanosoma brucei
Description: Parasites were axenically cultivated in sterile vented flasks containing complete Hirumi’s modified Iscove’s medium 9 (HMI-9) [500 mL IMDM (Iscove’s modified Dulbecco’s medium) (Gibco, Waltham, MA, USA) supplemented with 10% (v/v) heat-inactivated fetal bovine serum (HIFBS) (Sigma Aldrich), 10% (v/v) serum plus (Sigma Aldrich), HMI-9 supplement (1 mM hypoxanthine, 0.16 mM thymidine, 50 µM bathocuproine disulfonic acid, 1.5 mM cysteine, 1.25 Mm pyruvic acid, 0.2 mM 2-mercaptoethanol (Sigma Aldrich)), and 1% (v/v) penicillin–streptomycin (Sigma Aldrich) and incubated at 37 °C in a 5% CO2 atmosphere.
The in vitro inhibitory potency of the 400 MMVPB compounds against bloodstream forms of Trypanosoma brucei brucei was evaluated using the resazurin-based inhibition assay as previously described. Briefly, parasites at their mid-logarithmic growth phase were counted, and the cell density was adjusted with fresh complete HMI-9 medium to 2 × 10^5 trypanosomes per mL. Then, 90 µL of parasite suspension was then distributed into the wells of 96-well flat-bottomed plates containing 10 µL of compounds for a final test concentration of 10 µM. […] Each assay plate was set up in duplicate and repeated two times. The percent parasite inhibition was determined for each compound based on fluorescence readouts relative to the mean fluorescence of negative control wells.
y = 100/[1+ 10^(logIC50/99-x)H], where H is the hill coefficient or slope factor [60].

[3] = Table 4, analogs of MMV675968, solid material, read-out: IC50 ± SD T. b. b.
[4] = Table 4, negative log of IC50 in molar, read-out: pIC50 T. b. b. (converted)
[5] = Table 1, reference drugs included in MMVPB, read-out: IC50 ± SD T. b. b.
[6] = Table 1, negative log of IC50 in molar, read-out: pIC50 T. b. b. (converted)

Row | SMILES | CC50 at 48 h [1] [µM] | IC50 [2, 3] [µM] | IC50 [2, 4] [µM] | IC50 [2, 5] [µM] | IC50 [2, 6] [µM]
1 | COc1ccc(NCc2ccc3nc(N)nc(N)c3c2Cl)cc1OC [Analog 2] | 18.2 ± 3.08 | 2.4 ± 0.07 | 2.4 |  | 
2 | COc1ccccc1NCc1ccc2nc(N)nc(N)c2c1Cl [Analog 3] | 20.4 ± 0.7 | 3.2 ± 0.03 | 3.24 |  | 
3 | COc1ccc(NCc2ccc3nc(N)nc(N)c3c2Cl)cc1 [Analog 4] | 16.9 ± 0.2 | 2.5 ± 0.15 | 2.51 |  | 
4 | Cc1ccccc1NCc1ccc2nc(N)nc(N)c2c1Cl [Analog 5] | > 100 | 2.3 ± 0.2 | 2.29 |  | 
5 | COc1ccc(NCc2ccc3nc(N)nc(N)c3c2)cc1OC [Analog 6] | > 100 | 0.56 ± 0.07 | 0.562 |  | 
6 | COc1ccc(NCc2ccc3nc(N)nc(N)c3c2)cc1 [Analog 8] | 30.9 ± 2.3 | 0.25 ± 0.01 | 0.251 |  | 
7 | Cc1ccccc1NCc1ccc2nc(N)nc(N)c2c1 [Analog 9] | 22 ± 1.3 | 0.19 ± 0.003 | 0.191 |  | 
8 | COc1ccc(NC(=O)c2ccc3nc(N)nc(N)c3c2)cc1 [Analog 11] | 22.9 ± 0.5 | 4 ± 1.3 | 3.98 |  | 
9 | COc1ccc(NC(=O)c2ccc3nc(N)nc(N)c3c2)cc1OC [Analog 12] | > 100 | > 10 |  |  | 
10 | COc1ccccc1NC(=O)c1ccc2nc(N)nc(N)c2c1 [Analog 13] | > 100 | 3.2 ± 0.3 | 3.24 |  | 
11 | COc1cccc(CNC(=O)c2ccc3nc(N)nc(N)c3c2)c1 [Analog 14] | > 100 | 2.5 ± 0.13 | 2.51 |  | 
12 | Cc1ccccc1NC(=O)c1ccc2nc(N)nc(N)c2c1 [Analog 15] | > 100 | > 10 |  |  | 
13 | COc1ccccc1NCc1cnc(N)nc1N [Analog 16] | > 100 | > 10 |  |  | 
14 | COc1ccc(NCc2cnc(N)nc2N)cc1 [Analog 17] | > 100 | > 10 |  |  | 
15 | COc1cccc(CNCc2cnc(N)nc2N)c1 [Analog 18] | > 100 | > 10 |  |  | 
16 | COc1cccc(CNC(=O)c2cnc(N)nc2N)c1 [Analog 19] | > 100 | > 10 |  |  | 
17 | COc1ccc(NC(=O)c2cnc(N)nc2N)cc1 [Analog 20] | > 100 | > 10 |  |  | 
18 | COc1ccccc1NC(=O)c1cnc(N)nc1N [Analog 21] | > 100 | > 10 |  |  | 
19 | Nc1ncc(C(=O)Nc2cccnc2)c(N)n1 [Analog 22] | > 100 | > 10 |  |  | 
20 | Cc1ccccc1NC(=O)c1cnc(N)nc1N [Analog 23] | > 100 | > 10 |  |  | 
21 | COc1ccc(NC(=O)c2cnc(N)nc2N)cc1OC [Analog 24] | > 100 | > 10 |  |  | 
22 | OC(c1cc(C(F)(F)F)nc2c(C(F)(F)F)cccc12)C1CCCCN1 (stereo not shown) [MMV000016, Mefloquine, reference compound] | 11.3 |  |  | 1.6 ± 0.008 | 1.58
23 | CCN(CC)CCCCCCNc1cc(OC)cc2c(C)ccnc12 [MMV000063, Sitamaquine, reference compound] | > 100 |  |  | 1.5 ± 0.03 | 1.58
24 | CC1CS(=O)(=O)CCN1/N=C/c1ccc([N+](=O)[O-])o1 (stereo not shown) [MMV001499, Nifurtimox, reference compound] | > 100 |  |  | 0.2 ± 0.09 | 0.2

— article PMC9571290, “Preliminary Structure–Activity Relationship Study of the MMV Pathogen Box Compound MMV675968 (2,4-Diaminoquinazoline) Unveils Novel Inhibitors of Trypanosoma brucei brucei” (Molecules, 2022)
